Patent publication US9688638B2, “Opioid agonists and uses thereof” (priority 2013, dated 2017)
pEC50, pIC50, pKi: −log10 of the molar value. Read-outs that look alike come from different tables or passages of the source.

What was measured:
[1] = molecular target: recombinant human kappa (KOR) opioid receptor (Homo sapiens (Human), UniProt P41145); test: biochemical; format: binding
[2] = tested on: Swiss Albino or CD-1 male mice; test: Acetic acid writhing (AAW) analgesic assay; format: in vivo
Method: Approaches for evaluating analgesic activity of a compound of the present invention in vivo include a “writhing test.” Briefly, the compound to be tested is administered [by, for example, injection (e.g., subcutaneous injection)] to the mouse. Thereafter, a 0.5% acetic acid solution is administered (i.p.) to a mouse and the numbers of writhing responses are counted for twenty minutes. Antinociception is quantified as reduction in the number of writhes respective to vehicle.
An analgesic assay was used to determine whether a given compound can reduce and/or prevent visceral pain in mice. The assay utilizes Swiss Albino or CD-1 male mice (5-10 mice per group), each mouse being approximately 0.015-0.030 kg on the study day. Mice were treated according to standard protocols.
The animal was given an intraperitoneal (IP) injection of an irritant (acetic acid) that induces “writhing” which may include: contractions of the abdomen, twisting and turning of the trunk, arching of the back and the extension of the hindlimbs. Mice are given a single IP injection (0.1 mL/10 g bodyweight) of a 0.5% acetic acid solution. After the injection the animals were returned to their observation enclosure and their behavior was observed. Contractions were counted between 0 and 20 minutes after the injection. The animals were used once. In certain instances, the test articles were administered at multiple doses to determine a dose response curve.
Table 4 provides the results for certain compounds of the present invention that were administered subcutaneously. Table 5 provides the results for certain compounds of the present invention that were administered orally.

KOR = KOR (Homo sapiens (Human), UniProt P41145); test: cAMP accumulation assay, forskolin-stimulated CHO-K1 cells stably expressing KOR; format: cell-based; details: for EC50: inhibition of cAMP accumulation, forskolin 20 μM, read-out: EC50 cAMP (nM)-KOR
Method: (§1) Inhibition of cAMP accumulation by select compounds was measured in forskolin-stimulated CHO-K1 cells stably expressing KOR. CHO-K1 cells stably expressing KOR were harvested using Invitrogen Cell Dissociation Buffer, and then centrifuged at 1200 rpm for five minutes. The supernatant was aspirated and cells were resuspended in assay buffer to a density of 4×10^5 cells/mL. 25 μL of cells were added into a white half-area 96 well plate. Fourteen point serial dilutions of test compounds were carried out in assay buffer (PBS with 0.5 mM IBMX). Ketazocine was used as a positive control for each assay. 12.5 μL of compound was added to the cells in duplicate for each test concentration. The cells were then stimulated with 12.5 μL forskolin at a final concentration 20 μM. Cells were incubated for 45 minutes in a 37° C., 5% CO2 water jacketed incubator. CisBio HTRF cAMP assay reagent was used for cAMP quantitation. Two hours after substrate addition, signal at 665/615 nm was measured using the Perkin Elmer Victor X4 HTRF reader. Data analysis was done using GraphPad Prism, sigmoidal dose-response (variable slope) curve fitting.

Male Swiss Albino mice = test: Locomotor activity; format: in vivo; details: oral, 30 min pre-dose, 20 min observation
Method: The locomotor activity (LMA) model may be conducted to measure changes in activity following test article administration, which may be used to assess the CNS effects of the drug. In brief, at a predetermined time post-dose, rats are placed into observation chambers which are equipped with infrared photocells that can sense motion in the x, y, and z planes. Activity is measured as the number of photobeam breaks in a given plane (horizontal or vertical) or total distance traveled.
Male Swiss Albino mice were treated orally with vehicle (0.5% HPMC+0.1% Tween80), ketazocine, Compound 12 (0.3, 3 and 30 mg/kg) or Compound 20 (0.3, 3 and 30 mg/kg) thirty minutes prior to placement in the locomotor activity chamber. Total distance traveled was measured over the twenty minute observation time following placement in the locomotor activity chamber. Data are normalized relative to percent distance traveled in the vehicle group. The efficacy of Compound 12 (reported as percent distance traveled in comparison to vehicle) was 88.85%, 83.74% and 0.08% at 0.3, 3 and 30 mg/kg dosages, respectively, while the locomotor activity of Compound 20 (reported as percent distance traveled in comparison to vehicle) was 100%, 88% and 0.03% at 0.3, 3 and 30 mg/kg dosages, respectively.

[3] = molecular target: recombinant human mu (MOR) opioid receptor (Homo sapiens (Human), UniProt P35372); test: Radioligand competition binding assay, mu opioid receptor; details: [3H]Naloxone 4 nM, CHO-K1 membranes
Method: The binding affinities of certain compounds of the present invention were evaluated using radioligand binding assays in membranes prepared from CHO-K1 cells expressing recombinant human kappa (KOR) or mu (MOR) opioid receptors.
Competition binding experiments were conducted by incubating membrane protein to equilibrium in triplicate in the presence of a fixed concentration of radioligand and increasing concentrations of test compound for evaluation of binding to KOR or single concentration (10 μM) of test compound for evaluation of binding to MOR in 101 μL final volume. The radioligands used were specific for each receptor type, and the assay conditions are described in Table 1. Following incubations, the membranes were rapidly filtered through GF/B filter plate (presoaked with 0.5% polyethyleneimine), washed five times with cold 50 mM Tris-HCl, pH 7.5, and the bound radioactivity was then measured by liquid scintillation counting. Non-specific binding was measured in the presence of excess ligand; this value was subtracted from the total binding to yield the specific binding at each test concentration.
Ki (affinity of test compound) was obtained using the Cheng Prusoff correction using experimental Kd (affinity of radioligand) values that were previously determined under these assay conditions. For MOR binding, compounds were tested at one concentration, 10 μM, to evaluate its ability to inhibit specific radioligand binding. The values are expressed as percent inhibition of specific binding and greater than 50% inhibition of binding was considered to be significant.
With respect to determining MOR binding, an approach similar to one used for KOR binding was used.

MOR = MOR (Homo sapiens (Human), UniProt P35372); test: cAMP accumulation assay, forskolin-stimulated CHO-K1 cells stably expressing MOR; format: cell-based; details: inhibition of cAMP accumulation
Method: as §1
Using a similar approach, inhibition of cAMP accumulation by select compounds was also determined in forskolin-simulated CHO-K1 cells stably expressing MOR (wherein for this assay a density of 8×10^5 cells/mL was used and the positive control was DAMGO). Certain compounds of the present invention were tested as described above.

[4] = Mus musculus, sc, 20 min, subcutaneous, read-out: AAW % Efficacy
[5] = Cheng Prusoff correction, [3H]Diprenorphine 1 nM, CHO-K1 membranes, read-out: Kappa receptor binding Ki
[6] = Mus musculus, po, 20 min, oral, read-out: AAW % Efficacy

In the case of `COCCOCCOCCOc1ccc2c(c1)[C@]1(C)CCN(CC3CC3)[C@H](C2=O)[C@@H]1C` [Compound 4, (2S,6R,11R)-3-(Cyclopropylmethyl)-8-{2-[2-(2-methoxyethoxy)ethoxy]ethoxy}-6,11-dimethyl-3,4,5,6-tetrahydro-2,6-methano-3-benzazocin-1(2H)-one], the pIC50 [1] was 6.06, the pKi [1] was 6.69 and the inhibition in vivo at 200 mg/kg ([2]; Mus musculus, po, 20 min, oral, 200 mg/kg, read-out: AAW % Efficacy) was 3.8%. It also gave an inhibition in vivo at 3 mg/kg ([2]; Mus musculus, sc, 20 min, subcutaneous, 3 mg/kg, read-out: AAW % Efficacy) of 0%, an inhibition in vivo at 10 mg/kg [2, 4] of 39.7% and an inhibition in vivo at 30 mg/kg ([2]; Mus musculus, sc, 20 min, subcutaneous, 30 mg/kg, read-out: AAW % Efficacy) of 100%. The pEC50 (KOR) was 8.03.

For `COCCOCCOCCOCCOCCNc1ccc(Nc2ccc3c(c2)[C@]2(C)CCN(CC4CC4)[C@H](C3=O)[C@@H]2C)cc1` [Compound 12, (2S,6R,11R)-8-((4-(2,5,8,11,14-pentaoxahexadecan-16-ylamino)phenyl)amino)-3-(cyclopropylmethyl)-6,11-dimethyl-3,4,5,6-tetrahydro-2,6-methanobenzo[d]azocin-1(2H)-one], the pKi [1, 5] was 8.30, the inhibition in vivo at 0.1 mg/kg [2, 6] was 22.5% and the inhibition in vivo at 1 mg/kg [2, 6] was 56.9%. For the same compound, the inhibition in vivo at 10 mg/kg [2, 6] was 97.2%, the “AAW % Efficacy” value ([2]; subcutaneous, 3 mg/kg) was 68.6% and the “AAW percent efficacy, outlier data removed” value ([2]; subcutaneous, 3 mg/kg, outlier data removed) was 65.09. The “AAW % Efficacy” value ([2]; subcutaneous, 30 mg/kg) was 100.0%, the “percent distance traveled in comparison to vehicle” value (“percent distance traveled” for short) (Male Swiss Albino mice; 0.3 mg/kg) was 88.85% and the “percent distance traveled” value (Male Swiss Albino mice; 3 mg/kg) was 83.74%. The “percent distance traveled” value (Male Swiss Albino mice; 30 mg/kg) was 0.08%, the EC50 (KOR) was 7 nM and the pKi [3] was 7.23. The EC50 (MOR) was 189 nM.

`C[C@H]1[C@H]2C(=O)c3ccc(Nc4ccc(NCCOCCOCCOCCOCCOC(F)(F)F)cc4)cc3[C@]1(C)CCN2CC1CC1` [Compound 20, (2S,6R,11R)-3-(cyclopropylmethyl)-6,11-dimethyl-8-((4-((1,1,1-trifluoro-2,5,8,11,14-pentaoxahexadecan-16-yl)amino)phenyl)amino)-3,4,5,6-tetrahydro-2,6-methanobenzo[d]azocin-1(2H)-one] gave a pKi [1, 5] of 8.54, an inhibition in vivo at 0.3 mg/kg ([2]; Mus musculus, po, 20 min, oral, 0.3 mg/kg, read-out: AAW % Efficacy) of 39.1% and an inhibition in vivo at 3 mg/kg ([2]; Mus musculus, po, 20 min, oral, 3 mg/kg, read-out: AAW % Efficacy) of 79.5%. For the same compound, the inhibition in vivo at 30 mg/kg ([2]; Mus musculus, po, 20 min, oral, 30 mg/kg, read-out: AAW % Efficacy) was 100%, the inhibition in vivo at 10 mg/kg [2, 4] was 88.1% and the “percent distance traveled” value (Male Swiss Albino mice; 0.3 mg/kg) was 100%. For the same compound, the “percent distance traveled” value (Male Swiss Albino mice; 3 mg/kg) was 88%, the “percent distance traveled” value (Male Swiss Albino mice; 30 mg/kg) was 0.03% and the EC50 (KOR) was 6.1 nM. For the same compound, the pKi [3] was 7.35 and the EC50 (MOR) was 128 nM.

`C[C@H]1[C@H]2C(=O)c3ccc(NC(C)(C)CO)cc3[C@]1(C)CCN2CC1CC1` [Compound 23, (2S,6R,11R)-3-(Cyclopropylmethyl)-8-((1-hydroxy-2-methylpropan-2-yl)amino)-6,11-dimethyl-3,4,5,6-tetrahydro-2,6-methanobenzo[d]azocin-1(2H)-one] gave a pKi [1, 5] of 5.98, an EC50 (KOR) of 395 nM and a pKi [3] of 5.10. For the same compound, the EC50 (MOR) was 3290 nM.

`C[C@H]1[C@H]2C(=O)c3ccc(NC(CO)CO)cc3[C@]1(C)CCN2CC1CC1` [Compound 24, (2S,6R,11R)-3-(cyclopropylmethyl)-8-((1,3-dihydroxypropan-2-yl)amino)-6,11-dimethyl-3,4,5,6-tetrahydro-2,6-methanobenzo[d]azocin-1(2H)-one] showed a pKi [1, 5] of 6.31, an EC50 (KOR) of 107 nM and a pKi [3] of 5.74. The EC50 (MOR) was 598 nM.

`C[C@H]1[C@H]2C(=O)c3ccc(O)cc3[C@]1(C)CCN2CC1CC1` [Ketazocine, (2S,6R,11R)-3-(cyclopropylmethyl)-8-hydroxy-6,11-dimethyl-3,4,5,6-tetrahydro-2,6-methanobenzo[d]azocin-1(2H)-one, reference compound] was tested, and the pKi [1, 5] was 8.89, the pIC50 ([1]; [3H]Diprenorphine 1 nM, CHO-K1 membranes, read-out: Kappa receptor binding IC50) was 8.25 and the inhibition in vivo at 0.1 mg/kg [2, 6] was 12.8%. For the same compound, the inhibition in vivo at 1 mg/kg [2, 6] was 34.5%, the inhibition in vivo at 10 mg/kg [2, 6] was 58.9% and the inhibition in vivo at 100 mg/kg ([2]; Mus musculus, po, 20 min, oral, 100 mg/kg, read-out: AAW % Efficacy) was 100%. It also gave an inhibition in vivo at 0.01 mg/kg ([2]; Mus musculus, sc, 20 min, subcutaneous, 0.01 mg/kg, read-out: AAW % Efficacy) of 10.6%, an inhibition in vivo at 0.1 mg/kg [2, 4] of 50% and an inhibition in vivo at 1 mg/kg [2, 4] of 100%. For the same compound, the pEC50 (KOR) was 9.26 and the pIC50 [3] was 8.08.
